Values after ≈ are worked out from the molar mass of the structure shown.
Experiments:
[1] = molecular target: T1, Tyrosine-protein kinase JAK2 (Homo sapiens, UniProt O60674); experiment: Inhibition of JAK2 in cell-free system
[2] = molecular target: T1, Tyrosine-protein kinase JAK2; experiment: Inhibition of JAK2 expressed in human Du-145 cells; assay type: cell-based
[3] = Volume of distribution in Sprague-Dawley rat at 1 mg/kg, iv; assay type: ADME, organism-based; design: dose 1 mg/kg, route intravenous; conditions: in vivo
[4] = Clearance in Sprague-Dawley rat at 1 mg/kg, iv; assay type: ADME, organism-based; design: dose 1 mg/kg, route intravenous; conditions: in vivo
[5] = Lipophilicity log D of the compound at pH 7.4 by HPLC; assay type: physicochemical; conditions: buffer
[6] = Aqueous solubility of the compound at pH 7; assay type: physicochemical
Mus musculus [7] = experiment: Inhibition of JAK2 in erythropoietin-treated […] mouse assessed as reduction in pSTAT5 level in whole blood at 90 mg/kg, po measured after 1 and 3 hrs; assay type: functional, organism-based; design: dose 90 mg/kg, route oral
Mus musculus [8] = experiment: Inhibition of JAK2 in erythropoietin-treated […] mouse assessed as reduction in pSTAT5 level in whole blood at 30 mg/kg, po measured after 1 and 3 hrs; assay type: functional, organism-based; design: dose 30 mg/kg, route oral

T1 sequence (O60674 whole entry): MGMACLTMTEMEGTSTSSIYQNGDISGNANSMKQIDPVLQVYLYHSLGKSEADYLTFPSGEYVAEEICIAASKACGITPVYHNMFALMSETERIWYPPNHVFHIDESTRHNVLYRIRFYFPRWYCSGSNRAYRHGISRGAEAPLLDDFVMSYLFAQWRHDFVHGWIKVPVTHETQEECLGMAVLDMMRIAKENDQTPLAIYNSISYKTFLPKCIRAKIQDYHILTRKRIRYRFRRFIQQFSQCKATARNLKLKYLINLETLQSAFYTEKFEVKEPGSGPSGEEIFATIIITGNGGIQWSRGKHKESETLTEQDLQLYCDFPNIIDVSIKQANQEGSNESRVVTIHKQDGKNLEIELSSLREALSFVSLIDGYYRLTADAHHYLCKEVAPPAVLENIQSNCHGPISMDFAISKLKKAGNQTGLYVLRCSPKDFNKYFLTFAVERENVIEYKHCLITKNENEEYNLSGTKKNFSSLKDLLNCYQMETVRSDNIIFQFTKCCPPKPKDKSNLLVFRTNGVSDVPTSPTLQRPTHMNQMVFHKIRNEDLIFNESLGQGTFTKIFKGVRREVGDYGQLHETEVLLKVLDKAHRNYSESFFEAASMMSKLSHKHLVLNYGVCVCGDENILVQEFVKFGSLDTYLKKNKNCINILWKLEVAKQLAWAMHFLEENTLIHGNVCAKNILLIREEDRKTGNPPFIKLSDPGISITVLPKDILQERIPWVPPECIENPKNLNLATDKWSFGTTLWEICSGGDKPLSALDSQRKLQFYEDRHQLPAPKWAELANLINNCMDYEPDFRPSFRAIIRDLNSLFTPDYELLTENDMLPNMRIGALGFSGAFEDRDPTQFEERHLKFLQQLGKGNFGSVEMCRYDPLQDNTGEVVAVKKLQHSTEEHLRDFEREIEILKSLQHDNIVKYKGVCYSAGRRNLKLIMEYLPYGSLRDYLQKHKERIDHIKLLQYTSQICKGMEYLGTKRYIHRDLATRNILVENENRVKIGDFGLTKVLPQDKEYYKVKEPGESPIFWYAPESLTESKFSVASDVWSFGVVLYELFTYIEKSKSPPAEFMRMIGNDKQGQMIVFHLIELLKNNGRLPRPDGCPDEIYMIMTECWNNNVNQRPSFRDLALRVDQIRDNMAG

Row | SMILES | IC50 [1] | other results
1 | CC(C)Nc1nc2cc[nH]c(=O)c2c2cc(F)ccc12 | 139 nM | 
2 | CC(C)(C)CNc1nc2cc[nH]c(=O)c2cc1-c1ccc(F)cc1 | 29000 nM | 
3 | O=c1[nH]ccc2nc(N3CCC(F)(F)C3)c(-c3ccc(F)cc3)cc12 | 3940 nM | 
4 | CC(Nc1nc2cc[nH]c(=O)c2cc1-c1ccc(F)cc1)c1cc(F)c(Cl)cc1Cl (stereo unspecified) | 11800 nM | 
5 | CC(Nc1nc2cc[nH]c(=O)c2cc1-c1nc(-c2ccccc2)no1)C(C)(C)C (stereo unspecified) | 11500 nM | 
6 | CC(Nc1nc2cc[nH]c(=O)c2c2cc(F)ccc12)C(C)(C)C (stereo unspecified) | 26 nM | 
7 | O=c1[nH]ccc2nc(NCC3CCS(=O)(=O)C3)c3ccc(F)cc3c12 (stereo unspecified) | 512 nM | 
8 | O=c1[nH]ccc2nc(NCc3c(Cl)cccc3Cl)c3ccc(F)cc3c12 | 53 nM | 
9 | CN1CCC(N(c2nc3cc[nH]c(=O)c3c3cc(F)ccc23)C2CC2)CC1 | 540 nM | 
10 | O=c1[nH]ccc2nc(Nc3cccc(F)c3)c3ccc(F)cc3c12 | 4100 nM | 
11 | O=c1[nH]ccc2nc(Nc3c(F)cc(F)cc3Cl)c3ccc(F)cc3c12 | 4 nM | 
12 | O=c1[nH]ccc2nc(Nc3c(Cl)cccc3Cl)c3ccc(F)cc3c12 | 14 nM | 

Continued by falling IC50 [1], values first:

Row | IC50 [1] | SMILES | other results
13 | 8350 nM | CC(Nc1nc2cc[nH]c(=O)c2cc1C(=O)NCCN(C)C)C(C)(C)C (stereo unspecified) | 
14 | 3160 nM | CC(C)(CN)CNc1nc2cc[nH]c(=O)c2c2cc(F)ccc12 | 
15 | 1400 nM | O=c1[nH]ccc2nc(NCc3ccncc3)c(-c3ccccc3)cc12 | 
16 | 1110 nM | O=c1[nH]ccc2nc(NCc3ccccn3)c3ccc(F)cc3c12 | 
17 | 750 nM | O=c1[nH]ccc2nc(NC3CC(F)(F)C3)c3ccc(F)cc3c12 | 
18 | 630 nM | CC(Nc1nc2cc[nH]c(=O)c2cc1-c1ccccn1)C(C)(C)C (stereo unspecified) | 
19 | 274 nM | CC(C)(CO)CNc1nc2cc[nH]c(=O)c2c2cc(F)ccc12 | 
20 | 75 nM | O=c1[nH]ccc2nc(NC3CCC3)c3ccc(F)cc3c12 | 
21 | 55 nM | CC(C)[C@H](Nc1nc2cc[nH]c(=O)c2c2cc(F)ccc12)C(F)(F)F | 
22 | 27 nM | CC(C)[C@H](C)Nc1nc2cc[nH]c(=O)c2c2cc(F)ccc12 | 
23 | 1 nM | CC(C)[C@@H](Nc1nc2cc[nH]c(=O)c2c2cc(F)ccc12)C(F)(F)F | IC50 [2]: 50 nM; Vd [3]: 6 L/kg; clearance [4]: 21 mL/min/kg; logD [5]: 3.34; solubility [6]: 3 µM (≈ 1.06 µg/mL)
24 | 1 nM | CC(C)[C@@H](Nc1nc2cc[nH]c(=O)c2c2cnccc12)C(F)(F)F | IC50 [2]: 40 nM; IC50 (Mus musculus [7]): 2700 nM; Vd [3]: 8 L/kg; clearance [4]: 68 mL/min/kg; IC50 (Mus musculus [8]): 2700 nM; logD [5]: 2.33; solubility [6]: 120 µM (≈ 40.4 µg/mL)
